Results on three compounds are retold here after EP0735879B1, “USE OF AMINO CYCLODEXTRINS FOR THE AQUEOUS SOLUBILISATION OF DIBENZAZEPINES FOR USE AS AN ANTIEPILEPTIC AGENT” (COMMISSARIAT A L'ENERGIE ATOMIQUE, priority 1993, dated 1995).

Each structure is given as a SMILES string. In brackets after ≈: the same amount, converted by molar mass. Several values for one entry are separate records, joined by “and”; a condition that tells them apart may be missing. Equal values may be shown once.

In general, HC50 refers to the concentration giving 50% haemolysis. Low values mean more damage to red cells, high ones less damage to red cells.

For data set [1] the following is noted: 25°C; cited from earlier work.
The nature of data set [2]: physchem. The data set is classed as physicochemical. Conditions: 25°C, read-out: solubilité de la carbamazépine. On the procedure:
Dans cet exemple on évalue la solubilisation de la carbamazépine par différents dérivés de cyclodextrines dans des conditions standardisées. Les mesures de solubilité sont réalisées à 25°C en présence de la cyclodextrine considérée à la concentration de 25 mmol/l, le pH de la solution étant ajusté dans tous les cas à 7,4 pour simuler autant que posible les conditions physiologiques.

A short description of data set [3]: in vitro. As to conditions: human, erythrocytes, pH 7.
Experimental: Les propriétés hémolytiques du chlorhydrate ont été testées en mettant en contact 0,4 ml d'une suspension d'érythrocytes humains avec 4 ml de la solution du chlorhydrate dans 10 mmol d'un tampon phosphate isotonique à un pH de 7,4, pendant 30 minutes à 37°C.
Data set [4] has as its system Escherichia Coli. As to the kind of experiment: Ames test, mutagenicity. Format: cell-based. Conditions: test de AMES, souches d'Escherichia Coli.
Data set [5] has as its system rat Sprague-Dawley mâle et femelle. The data set is described as follows: Acute toxicity, intravenous injection. The data set is classed as in vivo. As to conditions: voie intraveineuse, chlorhydrate, 2g/kg de poids corporel.
Data set [6] in a line: pH of an aqueous solution of the hydrochloride. The data set is classed as physicochemical. As to conditions: solution à 1 % en poids du chlorhydrate dans de l'eau.
Data set [7] concerns Salmonella typhimurium. The data set is described as follows: Ames test, mutagenicity. Format: cell-based. Conditions: test de AMES, souches de Salmonella typhimurium. A general note: The Ames test uses bacterial strains that need an amino acid and regain growth without it when mutated back.
Data set [8] in a line: Solubility in water of the cyclodextrin. The data set is classed as physicochemical. As to conditions: 20°C, read-out: solubilité dans l'eau.

Take `NC(=O)N1c2ccccc2C=Cc2ccccc21` [Carbamazépine, carbamazépine]: the “solubilité dans l'eau pure” value in data set [1] is 12 µg/mL. In addition, the solubility is < 70 µM in data set [2] (phosphate buffer, pH 7.4, aqueous buffer, Tampon Phosphate 7,4, without cyclodextrin) and < 50 µM in data set [2] (pure water, water, Eau pure, without cyclodextrin).
Regarding `OC[C@H]1O[C@@H]2O[C@H]3[C@H](O)[C@@H](O)[C@@H](O[C@H]4[C@H](O)[C@@H](O)[C@@H](O[C@H]5[C@H](O)[C@@H](O)[C@@H](O[C@H]6[C@H](O)[C@@H](O)[C@@H](O[C@H]7[C@H](O)[C@@H](O)[C@@H](O[C@H]8[C@H](O)[C@@H](O)[C@@H](O[C@H]1[C@H](O)[C@H]2O)O[C@@H]8CO)O[C@@H]7CO)O[C@@H]6CO)O[C@@H]5CO)O[C@@H]4CO)O[C@@H]3CO` [β-CD, β-cyclodextrine, reference compound], the HC50 at 0.5 h in data set [3] is 5 mM and ~6000 µg/mL.
In the case of `NC[C@H]1O[C@@H]2O[C@H]3[C@H](O)[C@@H](O)[C@@H](O[C@H]4[C@H](O)[C@@H](O)[C@@H](O[C@H]5[C@H](O)[C@@H](O)[C@@H](O[C@H]6[C@H](O)[C@@H](O)[C@@H](O[C@H]7[C@H](O)[C@@H](O)[C@@H](O[C@H]8[C@H](O)[C@@H](O)[C@@H](O[C@H]1[C@H](O)[C@H]2O)O[C@@H]8CO)O[C@@H]7CO)O[C@@H]6CO)O[C@@H]5CO)O[C@@H]4CO)O[C@@H]3CO` [β-CD-NH2, mono-6-amino-β-cyclodextrine], the “activité mutagène” value in data set [4] and in data set [7] was “aucune activité mutagène” throughout. Besides, the mortalité entry in data set [5] is “aucune mortalité”. Also, in data set [6], the pH was 6,8. For the same compound, the HC50 at 0.5 h in data set [3] is ~30 mM and ~35000 µg/mL. In addition, the solubility in data set [8] was found to be 200 mg/mL (≈ 176 mM).
